US6284768A, “Src family SH2 domain inhibitors” (Boehringer Ingelheim Pharmaceuticals, Inc., priority 1999, dated 2001)
Read-outs that look alike come from different tables or passages of the source.

How the values were obtained:
[1] = tested on: Inter-leukin 2 (IL-2) production by activated Human Primary T Lymphocytes; experiment: Primary T cell assay: inhibition of IL-2 production by activated human primary CD4 positive T lymphocytes; assay type: cell-based; conditions: Table 5, mean IC50 value, CD4 positive T cells activated with anti-CD3/anti-CD28, IL-2 by ELISA, read-out: IC50 (blocking IL-2 production)
Procedure: Summary of Primary T Cell Assay.
Inhibitors of the lck SH2 domain were assayed for their ability to block Inter-leukin 2 (IL-2) production by activated Human Primary T Lymphocytes. Peripheral blood mononuclear cells were isolated from whole blood by centrifugation in ficoll-Pague partitioning medium. CD4 positive cells were purified using negative selection. […] The compounds, at the appropriate dilutions, were added, and the cells were incubated for 60 minutes at 37° C. The CD4 positive T cells were then activated by the addition of anti-CD3 (60 ng/mL), anti CD28 (500 ng/mL) and goat anti mouse IgG coated beads, and incubated overnight at 37° C. The cells were pelleted, and the supernatents assayed for IL-2 by ELISA.
As SH2 domain containing proteins are intracellular, any therapeutic agent must be able to cross biological membranes. […] These characteristics may be quantified by observing inhibition in IL-2 production in human blood CD4 positive T-lymphocytes after T cell receptor and CD28 cross-linking.

[2] = target: T1, p56lck GST-SH2 (lck SH2 domain) (Homo sapiens, UniProt P06239); experiment: Receptor-ligand equilibrium binding constants by surface plasmon resonance (biosensor), lck SH2 domain; conditions: Table 1, compounds of formula (II)
T1 construct: GST (N)
T1 sequence (P06239 127-224 limits assumed): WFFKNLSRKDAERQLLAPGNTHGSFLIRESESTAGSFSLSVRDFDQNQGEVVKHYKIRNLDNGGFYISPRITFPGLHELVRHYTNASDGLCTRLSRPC

Structure (SMILES) | IC50 ([1]; Homo sapiens, CD4 positive) [µM] | Kd [2] [µM] | IC50 [1] [µM]
Cc1ccn(CCCCC(C)C)c(=O)c1NC(=O)C(Cc1ccc(C(C)(C)C(=O)O)cc1)NC(=O)Cc1ccc2ccccc2c1 (stereo not drawn) [Compound 145] | 56 | 0.84 | 
COc1ccc(Cn2c(C)cc(C)c(NC(=O)[C@H](Cc3ccc(C(C)(C)C(=O)O)cc3)NC(=O)Cc3ccc4ccccc4c3)c2=O)cc1 [Compound 219] | 70 | 2.2 | 
COc1ccc(Cn2ccc(C)c(NC(=O)[C@H](Cc3ccc(C(C)(C)C(=O)O)cc3)NC(=O)C(C)(C)c3ccc(C(C)C)cc3)c2=O)cc1 [Compound 118] | 61 | 0.61 | 
COc1ccc(Cn2ccc(C)c(NC(=O)C(Cc3ccc(C(C)(C)C(=O)O)cc3)NC(=O)COc3cccc4c(N(C)C)cccc34)c2=O)cc1 (stereo not drawn) [Compound 175] | 108 | 0.78 | 
CCC(CC)(C(=O)O)c1ccc(C[C@H](NC(=O)Cc2ccc3ccccc3c2)C(=O)Nc2c(C)ccn(Cc3ccc(OC)cc3)c2=O)cc1 [Compound 106] | 82 | 0.47 | 
COc1ccc(Cn2ccc(C)c(NC(=O)C(Cc3ccc(C(C)(C)C(=O)O)cc3)NC(=O)C(C)(C)c3ccc(-c4ccccc4)cc3)c2=O)cc1 (stereo not drawn) [Compound 159] | 25 | 1.4 | 
COc1ccc(Cn2ccc(C)c(NC(=O)[C@H](Cc3ccc(C(C)(C)C(=O)O)cc3)NC(=O)Cc3ccc4ccccc4c3)c2=O)cc1 [Compound 97] | 113 | 0.14 | 
COc1ccc(Cn2ccc(C)c(NC(=O)C(Cc3ccc(C(C)(C)C(=O)O)cc3)NC(=O)Cc3ccc(-c4ccccc4)cc3)c2=O)cc1 (stereo not drawn) [Compound 158] | 75 | 1.7 | 
CCCCCCn1ccc(C)c(NC(=O)C(Cc2ccc(C(C)(C)C(=O)O)cc2)NC(=O)Cc2ccc(C(F)(F)F)cc2)c1=O (stereo not drawn) [Compound 209] | 92 | 0.19 | 
CCOc1ccc(Cn2ccc(C)c(NC(=O)C(Cc3ccc(C(C)(C)C(=O)O)cc3)NC(=O)C(C)(C)c3ccc4ccccc4c3)c2=O)cc1 (stereo not drawn) [Compound 139] | 56 | 2.9 | 
Cc1ccn(CC2(c3ccccc3)CC2)c(=O)c1NC(=O)C(Cc1ccc(C(C)(C)C(=O)O)cc1)NC(=O)C(C)(C)c1ccc2ccccc2c1 (stereo not drawn) [Compound 215] | 36 | 5.9 | 
Cc1ccn(CCc2ccccc2)c(=O)c1NC(=O)C(Cc1ccc(C(C)(C)C(=O)O)cc1)NC(=O)Cc1ccc2ccccc2c1 (stereo not drawn) [Compound 200] | 87 | 2.2 | 
COc1ccc(Cn2ccc(C)c(NC(=O)C(Cc3ccc(C(C)(C)C(=O)O)cc3)NC(=O)C(C)(C)c3ccc(C(F)(F)F)cc3)c2=O)cc1 (stereo not drawn) [Compound 217] | 70 | 1.3 | 
COc1ccc(Cn2ccc(C)c(NC(=O)C(Cc3ccc(C4(C(=O)O)CCCC4)cc3)NC(=O)Cc3ccc4ccccc4c3)c2=O)cc1 (racemic) [Compound 108] | 69 | 2.8 | 
CCCCCCn1ccc(C)c(NC(=O)C(Cc2ccc(C(C)(C)C(=O)O)cc2)NC(=O)Cc2ccc(OC)cc2)c1=O (stereo not drawn) [Compound 208] | 279 | 0.8 | 
CCOc1ccc(Cn2ccc(C)c(NC(=O)C(Cc3ccc(C(C)(C)C(=O)O)cc3)NC(=O)Cc3cccc4ccccc34)c2=O)cc1 (stereo not drawn) [Compound 140] | 82 | 0.63 | 
CCCCCCn1ccc(C)c(NC(=O)C(Cc2ccc(C(C)(C)C(=O)O)cc2)NC(=O)Cc2ccc3ccccc3c2)c1=O (stereo not drawn) [Compound 137] | 75 | 0.51 | 
CCCCCCn1ccc(C)c(NC(=O)C(Cc2ccc(C(C)(C)C(=O)O)cc2)NC(=O)Cc2c(F)c(F)c(F)c(F)c2F)c1=O (stereo not drawn) [Compound 142] | 94 | 1.3 | 
COc1ccc(Cn2ccc(C)c(NC(=O)[C@H](Cc3ccc(C(C)(C)C(=O)O)cc3)NC(=O)N(C)c3cccc4ccccc34)c2=O)cc1 [Compound 133] | 112 | 0.78 | 
COc1ccc(Cn2ccc(C)c(NC(=O)C(Cc3ccc(C(C)(C)C(=O)O)cc3)NC(=O)Cc3cccc4ccccc34)c2=O)cc1 (stereo not drawn) [Compound 216] |  | 190 | 193

Structure (SMILES) | IC50 ([1]; Homo sapiens, CD4 positive) [µM] | Kd [2] [µM] | IC50 [1] [µM]
Cc1ccn(Cc2ccc3c(c2)OCO3)c(=O)c1NC(=O)C(Cc1ccc(C(C)(C)C(=O)O)cc1)NC(=O)C(C)(C)c1ccc2ccccc2c1 (stereo not drawn) [Compound 154] | 45 | 1.2 | 
Cc1ccn(CC2(c3ccccc3)CC2)c(=O)c1NC(=O)C(Cc1ccc(C(C)(C)C(=O)O)cc1)NC(=O)Cc1ccc2ccccc2c1 (stereo not drawn) [Compound 214] | 117 | 1.2 | 
CCCCCCn1cc(-c2ccccc2)c(C)c(NC(=O)C(Cc2ccc(C(C)(C)C(=O)O)cc2)NC(=O)Cc2ccc3ccccc3c2)c1=O (stereo not drawn) [Compound 231] | 57 | < 8 | 
CCCCCCCn1ccc(C)c(NC(=O)C(Cc2ccc(C(C)(C)C(=O)O)cc2)NC(=O)Cc2ccc3ccccc3c2)c1=O (stereo not drawn) [Compound 138] | 64 | 0.83 | 
Cc1ccn(CC2CCCCC2)c(=O)c1NC(=O)C(Cc1ccc(C(C)(C)C(=O)O)cc1)NC(=O)Cc1cccc2ccccc12 (stereo not drawn) [Compound 194] | 84 | 2.3 | 
CCCCCCn1ccc(C)c(NC(=O)C(Cc2ccc(C(C)(C)C(=O)O)cc2)NC(=O)COc2ccccc2)c1=O (stereo not drawn) [Compound 205] | 136 | 1.9 | 
CCC(CC)(C(=O)NC(Cc1ccc(C2(C(=O)O)CCCC2)cc1)C(=O)Nc1c(C)ccn(Cc2ccc(OC)cc2)c1=O)c1ccc2ccccc2c1 (stereo not drawn) [Compound 125] | 29 | > 15 | 
COc1ccc(Cn2ccc(C)c(NC(=O)[C@H](Cc3ccc(C(C)(C)C(=O)O)cc3)NC(=O)[C@@H](C)c3ccc4ccccc4c3)c2=O)cc1 [Compound 46] | 58 | 2.3 | 
COc1ccc(Cn2ccc(C)c(NC(=O)[C@H](Cc3ccc(C(C)(C)C(=O)O)cc3)NC(=O)Cc3c(C)cc(C)cc3C)c2=O)cc1 [Compound 117] | 108 | 0.37 | 
COc1ccc(Cn2ccc(C)c(NC(=O)[C@H](Cc3ccc(C(C)(C)C(=O)O)cc3)NC(=O)Cc3ccc(NCc4ccccc4)cc3)c2=O)cc1 [Compound 130] | 181 | 0.84 | 
COc1ccc(C(C)n2ccc(C)c(NC(=O)C(Cc3ccc(C(C)(C)C(=O)O)cc3)NC(=O)Cc3cccc4ccccc34)c2=O)cc1 (stereo not drawn) [Compound 178] | 65 | 0.68 | 
COc1ccc(Cn2ccc(C)c(NC(=O)[C@H](Cc3ccc(C(C)(C)C(=O)O)cc3)NC(=O)Cc3ccc(C(C)C)cc3)c2=O)cc1 [Compound 94] | 156 | 0.21 | 
CCOc1ccc(Cn2ccc(C)c(NC(=O)C(Cc3ccc(C(C)(C)C(=O)O)cc3)NC(=O)C(C)(C)c3cccc4ccccc34)c2=O)cc1 (stereo not drawn) [Compound 141] | 49 | 8.8 | 
Cc1ccn(Cc2ccc(C(F)(F)F)cn2)c(=O)c1NC(=O)[C@H](Cc1ccc(C(C)(C)C(=O)O)cc1)NC(=O)Cc1ccc2ccccc2c1 [Compound 128] | 207 | 1.6 | 
COc1ccc(Cn2ccc(C)c(NC(=O)[C@H](Cc3ccc(C(C)(C)C(=O)O)cc3)NC(=O)[C@@H](C)c3ccc(CC(C)C)cc3)c2=O)cc1 [Compound 127] | 52 | 1.4 | 
CCC(C(=O)N[C@@H](Cc1ccc(C(C)(C)C(=O)O)cc1)C(=O)Nc1c(C)ccn(Cc2ccc(OC)cc2)c1=O)c1ccc2ccccc2c1 (stereo partly drawn) [Compound 109] | 78 | 0.33 | 
Cc1ccn(CC2CCCCC2)c(=O)c1NC(=O)C(Cc1ccc(C(C)(C)C(=O)O)cc1)NC(=O)C(C)(C)c1ccc2ccccc2c1 (stereo not drawn) [Compound 196] | 29 | 5.4 | 
COc1ccc(Cn2cc(Br)c(C)c(NC(=O)[C@H](Cc3ccc(C(C)(C)C(=O)O)cc3)NC(=O)Cc3ccc4ccccc4c3)c2=O)cc1 [Compound 220, 3-[2'-(S)-(2""-Naphthylacetyl)amino-3'-[4"-(1'"-carboxy-1'"-methyl)ethyl]benzene]propanoylamino-5-bromo-1-(4-methoxybenzyl)-4-methyl-2-pyridone] | 31 | 0.17 | 
COc1ccc(Cn2ccc(C)c(NC(=O)[C@H](Cc3ccc(C(C)(C)C(=O)O)cc3)NC(=O)Cc3cccc4ccccc34)c2=O)cc1 [Compound 2, 3-[2'-(S)-(1"-Naphthylacetyl)amino-3'-[4'"-(1'"-carboxy-1'"-methyl)ethyl]benzene]propanoylamino-1-(4-methoxybenzyl)-4-methyl-2-pyridone] | 96 | 0.57 | 
